Where two headings read alike, the source gives them in different places. Ends that are not written are not given here.

Assay [1] deals with HIV-1 pseudotyped with wild type Env from strain HXB2 (HOS-CD4 target cells). In kind it is cell-based. As to the method: (§1) All viral infectivity and cell-cell fusion experiments were performed as described in Chan, D., et. al., 1998, Proc. Natl. Acad. Sci. U.S.A. 95, 15613-15617. Briefly, the potency of C-peptides in inhibiting viral infection was determined using recombinant luciferase-expressing HIV-1 as described by Malashkevich, V. N., et. al., 1998, Proc. Natl. Acad. Sci. USA 95, 9134-9139. To produce virus, 293T cells were co-transfected with the envelope-deficient HIV-1 genome NL43LucR-E-(21) and the HXB2 gp160 expression vector pCMVHXB2 gp160 using calcium phosphate. Viral supernatants were cleared of cellular debris by low-speed centrifugation and used to infect HOS-CD4/Fusin cells (N. Landau, National Institutes of Health AIDS Reagent Program) in the presence of varying concentrations of C-peptide, ranging from 0 to 200 nM. Cells were harvested 48 hr postinfection, and luciferase activity was measured in a Wallac (Gaithersburg, Md.) AutoLumat LB953 luminometer. The IC50 is the peptide concentration that results in a 50% decrease in activity relative to control samples lacking peptide. For each peptide, data from three experiments were fit to a Langmuir equation [y=k/(1+([peptide]/IC50)], where y=luciferase activity and k is a scaling constant] to obtain the IC50 values.
(§2) HOS-CD4-Les cells were infected with HIV-1 pseudotyped with Env from HXB2 HIV-1 strain of either the wild type sequence or one of three variant sequences that confer resistance to C-peptides. The sequences of Res1 and Res2 Env, defined in FIG. 1, contain mutations in the gp41 HR1 region that decrease C-peptide binding affinity. The sequence of Res3 contains a mutation in the gp41 HR2 region (N637K) that confers partial resistance by enhancing the rate of viral membrane fusion. The IC50 (±SEM) values represent the mean of 2 or 3 independent titrations of the indicated C-peptide.
(§3) The C37 variants generated were able to overcome resistance conferred by the HR1 region mutations. In FIG. 2, viruses pseudotyped with either wild type Env (closed squares) or V549E mutant Env (Res1, closed circles) from strain HXB2 were utilized to infect HOS-CD4-Les target cells. Infection took place in the presence and absence of C37 (FIG. 2A), C37-KYI (FIG. 2B) or (C37-GC)2 (FIG. 2C) and quantified by the expression of a luciferase-reporter construct. The IC50 values are indicated on the graph. A mutant variant of C37 with two substitutions (N637K and T6391), hereafter denoted C37-KYI, binds to a structural mimic of the gp41 HR1 region, the N-peptide known as N36 with an estimated equilibrium dissociation constant (Kd) of 40 fM, more than 20-fold lower than the Kd for wild type C37 (FIG. 2). The Hr1 and HR2 regions of three gp41 form an intermediate structure called the trimer-of-hairpins which is necessary for the viral entry process and membrane fusion with the host membrane.

Assay [2] concerns HIV-1 pseudotyped with V549E mutant Env (Res1, V38E) from strain HXB2. Format: cell-based. As to the method: as §1, §2, §3
Assay [3] concerns HIV-1 pseudotyped with Res 3 Env (HR2 mutant, N637K), HXB2. In kind it is cell-based. Here is the method:
as §1, §2

The test system of assay [4] is HIV-1 with resistance mutations at the gp41 HR1 region. As to conditions: read-out: IC50 after emergence of resistance mutations; cited from earlier work.
The subject of assay [5] is HIV entry. As to conditions: read-out: IC50 against HIV entry; cited from earlier work.
The subject of assay [6] is HIV-1 Res 4 (SDTV). In kind it is cell-based. As to conditions: Table 2.
The subject of assay [7] is HIV-1 Res 2 (L33S). In kind it is cell-based. As to conditions: Table 2. As to the method: as §1, §2
The test system of assay [8] is HIV-1 with resistance mutations at the gp41 HR1 region. Put plainly: Viral infectivity, C-peptide-resistant HIV-1 (HR1 region resistance mutations, text statements). Format: cell-based. As to the method: as §1, with “values. […]” for “values.”
Setting [9] is: Table 1, HXB2 wild type Env, HOS-CD4-Les cells, mean of 2 or 3 titrations, read-out: IC50 (±SEM), WT Env.
[10] abbreviates: Table 2, read-out: IC50, WT HXB2.

As for “(C37-GC)2: Disulfide-crosslinked dimeric C37 variant containing a Cys residue at the peptide's C-terminus (added Gly-Cys) (HTTWMEWDREINNYTSLIHSLIEESQNQQEKNEQELLGC; also: disulfide-crosslinked homodimer via C-terminal Cys)”, the IC50 stood at 0.3 nM in assay [1] (setting [9]) and 0.3 nM in assay [2] (Table 1, HOS-CD4-Les cells, read-out: IC50 (±SEM), Res 1 Env (HR1 mutant)). Further, the “inhibition of wild type virus compared to monomeric C37” value in assay [1] (in words) was “not significantly better”.
For enfuvirtide, the IC50 in assay [3] (Table 1, HOS-CD4-Les cells, read-out: IC50 (±SEM), Res 3 Env (HR2 mutant)) was 6.4 ± 1.5 nM; in assay [4], more than 900 nM; in assay [5], approximately 1 nM; in assay [6], 900 ± 150 nM; in assay [1] (setting [9]), 1.7 ± 0.4 nM; in assay [1] (setting [10]), 2.3 ± 1 nM.
As for `CC[C@H](C)[C@H](NC(=O)[C@H](CC(C)C)NC(=O)[C@H](CO)NC(=O)[C@H](Cc1c[nH]cn1)NC(=O)[C@@H](NC(=O)[C@H](CC(C)C)NC(=O)[C@H](CO)NC(=O)[C@@H](NC(=O)[C@H](Cc1ccc(O)cc1)NC(=O)[C@H](CC(N)=O)NC(=O)[C@H](CC(N)=O)NC(=O)[C@@H](NC(=O)[C@H](CCC(=O)O)NC(=O)[C@H](CCCNC(=N)N)NC(=O)[C@H](CC(=O)O)NC(=O)[C@H](Cc1c[nH]c2ccccc12)NC(=O)[C@H](CCC(=O)O)NC(=O)[C@H](CCSC)NC(=O)[C@H](Cc1c[nH]c2ccccc12)NC(=O)[C@@H](NC(=O)[C@@H](NC(=O)[C@H](Cc1c[nH]cn1)NC(=O)CNC(=O)CN)[C@@H](C)O)[C@@H](C)O)[C@@H](C)CC)[C@@H](C)O)[C@@H](C)CC)C(=O)N[C@@H](CCC(=O)O)C(=O)N[C@@H](CCC(=O)O)C(=O)N[C@@H](CO)C(=O)N[C@@H](CCC(N)=O)C(=O)N[C@@H](CC(N)=O)C(=O)N[C@@H](CCC(N)=O)C(=O)N[C@@H](CCC(N)=O)C(=O)N[C@@H](CCC(=O)O)C(=O)N[C@@H](CCCCN)C(=O)N[C@@H](CC(N)=O)C(=O)N[C@@H](CCC(=O)O)C(=O)N[C@@H](CCC(N)=O)C(=O)N[C@@H](CCC(=O)O)C(=O)N[C@@H](CC(C)C)C(=O)N[C@@H](CC(C)C)C(=O)NCC(=O)NCC(=O)N[C@@H](Cc1c[nH]cn1)C(=O)N[C@@H](Cc1c[nH]cn1)C(=O)N[C@@H](Cc1c[nH]cn1)C(=O)N[C@@H](Cc1c[nH]cn1)C(=O)N[C@@H](Cc1c[nH]cn1)C(=O)N[C@@H](Cc1c[nH]cn1)C(=O)O` [C37], the IC50 in assay [3] (Table 2, read-out: IC50, Res 3 (N123K/L204I)) was 7.1 ± 3.6 nM; in assay [7], 1.3 ± 0.4 nM; in assay [6], 53 ± 15 nM; in assay [1] (setting [10]), 1.3 ± 0.2 nM; in assay [1] (read-out: IC50 against viruses pseudotyped with EnvHXB2) it was approximately 1 nM; in assay [2] (Table 2, read-out: IC50, Res 1 (V38E)), 126 ± 24 nM. In assay [8], the “fold reduction in inhibitory potency by HR1 region resistance mutations” value is 100 fold.

The values are drawn from patent US20100029568A1, “TIGHTER-BINDING C-PEPTIDE INHIBITORS OF HIV-1 ENTRY” (priority 2007, published 2010).
